These results are taken from patent US11596639B2, “Substituted indole Mcl-1 inhibitors” (Vanderbilt University, priority 2016, dated 2023).

pKi: −log10 of the molar value.

One assay addresses Mcl-1 (Homo sapiens (Human), UniProt Q07820). Nature of the assay: Fluorescence polarization anisotropy (FPA) competition assay, FITC-Bak or FITC-Bim BH3 peptide. The format is binding. The following applies: read-out: Ki for Inhibition of Mcl-1 by FPA assay. In general terms: In fluorescence polarisation assays a small probe gives low polarisation when free and higher when bound to something large.

Assay [1] deals with H929 human cancer cell lines. The assay is described as follows: Cellular viability / proliferation (Cell TiterGlo, 72 h). It counts as cell-based. The conditions noted are these: Homo sapiens, NCI-H929, 72 h, read-out: GI50 on cellular proliferation of H929 human cancer cell lines, H929 cells, 72 h, Cell TiterGlo, 10% FBS. In outline: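 Cells were seeded at 1,000 cells/well in medium with 10% FBS and dosed 24 h later with a 2-fold serial dilution of compound (top concentration 50 μM, final DMSO <1%).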
For orientation: Cellular ATP, detected with luciferase, serves as a proxy for viable cell number.

As usually defined, the pKi is −log10 of the Ki, conventionally taken in molar units.

Sequence of Mcl-1 (Q07820 172-327): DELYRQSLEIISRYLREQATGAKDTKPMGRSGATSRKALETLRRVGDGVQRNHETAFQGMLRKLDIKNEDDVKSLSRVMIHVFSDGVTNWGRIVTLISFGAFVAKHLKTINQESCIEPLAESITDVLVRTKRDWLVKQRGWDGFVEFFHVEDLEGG

As for `Cc1cc(N2C[C@@H](C)n3c(c(CCCOc4cc(C)c(Cl)c(C)c4)c4ccc(Cl)c(-c5c(C)ncnc5C)c43)C2=O)c2c(c1)cc(C(N)=O)n2Cc1ccccn1` [Example 379, (R)-7-(7-chloro-10-(3-(4-chloro-3,5-dimethylphenoxy)propyl)-6-(4,6-dimethylpyrimidin-5-yl)-4-methyl-1-oxo-3,4-dihydropyrazino[1,2-a]indol-2(1H)-yl)-5-methyl-1-(pyridin-2-ylmethyl)-1H-indole-2-carboxamide], the pKi on Mcl-1 was 8.44. The GI50 in assay [1] stood at 560 nM.
Consider `Cc1cc(OCCCc2c3n(c4c(-c5c(C)nn(C)c5C)c(Cl)ccc24)[C@H](C)CN(c2cccc4cc(C(=O)O)n(CC5(C)COC5)c24)C3=O)cc(C)c1Cl` [Example 380, (R)-7-(7-chloro-10-(3-(4-chloro-3,5-dimethylphenoxy)propyl)-4-methyl-1-oxo-6-(1,3,5-trimethyl-1H-pyrazol-4-yl)-3,4-dihydropyrazino[1,2-a]indol-2(1H)-yl)-1-((3-methyloxetan-3-yl)methyl)-1H-indole-2-carboxylic acid], for which the negative-log Ki (pKi) at Mcl-1 is 8.10. The GI50 in assay [1] worked out at 2500 nM.
The like results for `Cc1cccc(Cn2c(C(=O)O)cc3cccc(N4C[C@@H](C)n5c(c(CCCOc6cc(C)c(Cl)c(C)c6)c6ccc(Cl)c(-c7c(C)nn(C)c7C)c65)C4=O)c32)n1` [Example 381, (R)-7-(7-Chloro-10-(3-(4-chloro-3,5-dimethylphenoxy)propyl)-4-methyl-1-oxo-6-(1,3,5-trimethyl-1H-pyrazol-4-yl)-3,4-dihydropyrazino[1,2-a]indol-2(1H)-yl)-1-((6-methylpyridin-2-yl)methyl)-1H-indole-2-carboxylic acid] were, in that order, 8.59 and 250 nM.
The like results for `COc1ccc(Cn2c(C(=O)O)cc3cccc(N4C[C@@H](C)n5c(c(CCCOc6cc(C)c(Cl)c(C)c6)c6ccc(Cl)c(-c7c(C)nn(C)c7C)c65)C4=O)c32)nc1` [Example 382, (R)-7-(7-Chloro-10-(3-(4-chloro-3,5-dimethylphenoxy)propyl)-4-methyl-1-oxo-6-(1,3,5-trimethyl-1H-pyrazol-4-yl)-3,4-dihydropyrazino[1,2-a]indol-2(1H)-yl)-1-((5-methoxypyridin-2-yl)methyl)-1H-indole-2-carboxylic acid] were, in that order, 8.92 and 750 nM.
For `Cc1cc(OCCCc2c3n(c4c(-c5c(C)nn(C)c5C)c(Cl)ccc24)[C@H](C)CN(c2cccc4cc(C(=O)O)n(CC5COC5)c24)C3=O)cc(C)c1Cl` [Example 383, (R)-7-(7-Chloro-10-(3-(4-chloro-3,5-dimethylphenoxy)propyl)-4-methyl-1-oxo-6-(1,3,5-trimethyl-1H-pyrazol-4-yl)-3,4-dihydropyrazino[1,2-a]indol-2(1H)-yl)-1-(oxetan-3-ylmethyl)-1H-indole-2-carboxylic acid], in that order: 8.59 and 1500 nM.
Regarding `Cc1cc(OCCCc2c3n(c4c(-c5c(C)ncnc5C)c(Cl)ccc24)[C@H](C)CN(c2cccc4cc(C(N)=O)n(C)c24)C3=O)cc(C)c1Cl` [Example 384, (R)-7-(7-Chloro-10-(3-(4-chloro-3,5-dimethylphenoxy)propyl)-6-(4,6-dimethylpyrimidin-5-yl)-4-methyl-1-oxo-3,4-dihydropyrazino[1,2-a]indol-2(1H)-yl)-1-methyl-1H-indole-2-carboxamide], the pKi at Mcl-1 is 8.17. Besides, the GI50 in assay [1] turned out to be 910 nM.
Regarding `Cc1cc(OCCCc2c3n(c4c(-c5c(C)nn(C)c5C)c(Cl)ccc24)[C@H](C)CN(c2cccc4cc(C(N)=O)n(Cc5ccccn5)c24)C3=O)cc(C)c1Cl` [Example 385, (R)-7-(7-Chloro-10-(3-(4-chloro-3,5-dimethylphenoxy)propyl)-4-methyl-1-oxo-6-(1,3,5-trimethyl-1H-pyrazol-4-yl)-3,4-dihydropyrazino[1,2-a]indol-2(1H)-yl)-1-(pyridin-2-ylmethyl)-1H-indole-2-carboxamide], the pKi at Mcl-1 was 8.39. Besides, the GI50 in assay [1] stood at 510 nM.
In the case of `Cc1cc(OCCCc2c3n(c4c(-c5c(C)nn(C)c5C)c(Cl)ccc24)[C@H](C)CN(c2cccc4cc(C(=O)O)n(C(C)c5ccccn5)c24)C3=O)cc(C)c1Cl` (stereo partly drawn) [Example 386, 7-((R)-7-Chloro-10-(3-(4-chloro-3,5-dimethylphenoxy)propyl)-4-methyl-1-oxo-6-(1,3,5-trimethyl-1H-pyrazol-4-yl)-3,4-dihydropyrazino[1,2-a]indol-2(1H)-yl)-1-(1-(pyridin-2-yl)ethyl)-1H-indole-2-carboxylic acid], the pKi at Mcl-1 was 8.49. In addition, the GI50 in assay [1] is 3100 nM.
The like results for `Cc1cccnc1Cn1c(C(=O)O)cc2cccc(N3C[C@@H](C)n4c(c(CCCOc5cc(C)c(Cl)c(C)c5)c5ccc(Cl)c(-c6c(C)nn(C)c6C)c54)C3=O)c21` [Example 387, (R)-7-(7-Chloro-10-(3-(4-chloro-3,5-dimethylphenoxy)propyl)-4-methyl-1-oxo-6-(1,3,5-trimethyl-1H-pyrazol-4-yl)-3,4-dihydropyrazino[1,2-a]indol-2(1H)-yl)-1-((3-methylpyridin-2-yl)methyl)-1H-indole-2-carboxylic acid] were, in that order, 8.68 and 3600 nM.
The like results for `Cc1cc(OCCCc2c3n(c4c(-c5c(C)nn(C)c5C)c(Cl)ccc24)[C@H](C)CN(c2cn(C)c4ccc(-c5ccn(C)n5)cc24)C3=O)cc(C)c1Cl` [Example 388, (R)-7-Chloro-10-(3-(4-chloro-3,5-dimethylphenoxy)propyl)-4-methyl-2-(1-methyl-5-(1-methyl-1H-pyrazol-3-yl)-1H-indol-3-yl)-6-(1,3,5-trimethyl-1H-pyrazol-4-yl)-3,4-dihydropyrazino[1,2-a]indol-1(2H)-one] were, in that order, 8.82 and 330 nM.
For `Cc1cc(OCCCc2c3n(c4c(-c5c(C)nn(C)c5C)c(Cl)ccc24)[C@H](C)CN(c2cn(C)c4ccc(-c5ccccn5)cc24)C3=O)cc(C)c1Cl` [Example 389, (R)-7-Chloro-10-(3-(4-chloro-3,5-dimethylphenoxy)propyl)-4-methyl-2-(1-methyl-5-(pyridin-2-yl)-1H-indol-3-yl)-6-(1,3,5-trimethyl-1H-pyrazol-4-yl)-3,4-dihydropyrazino[1,2-a]indol-1(2H)-one], the pKi on Mcl-1 was above 9.00. Also, the GI50 in assay [1] is 1500 nM.
The like results for `Cc1cc(OCCCc2c3n(c4c(-c5c(C)nc(CN6CCCC6)nc5C)c(Cl)ccc24)[C@H](C)CN(c2cn(C)c4ccc(C(=O)O)cc24)C3=O)cc(C)c1Cl` [Example 390, (R)-3-(7-Chloro-10-(3-(4-chloro-3,5-dimethylphenoxy)propyl)-6-(4,6-dimethyl-2-(pyrrolidin-1-ylmethyl)pyrimidin-5-yl)-4-methyl-1-oxo-3,4-dihydropyrazino[1,2-a]indol-2(1H)-yl)-1-methyl-1H-indole-5-carboxylic acid] were, in that order, 8.64 and 340 nM.
Take `Cc1cc(OCCCc2c3n(c4c(-c5c(C)nn(C)c5C)c(Cl)ccc24)[C@H](C)CN(c2cn(C)c4ccc(-c5cnn(C)c5)cc24)C3=O)cc(C)c1Cl` [Example 391, (R)-7-Chloro-10-(3-(4-chloro-3,5-dimethylphenoxy)propyl)-4-methyl-2-(1-methyl-5-(1-methyl-1H-pyrazol-4-yl)-1H-indol-3-yl)-6-(1,3,5-trimethyl-1H-pyrazol-4-yl)-3,4-dihydropyrazino[1,2-a]indol-1(2H)-one]: the pKi at Mcl-1 was 8.68. For the same compound, in assay [1], the GI50 turned out to be 370 nM.
For `Cc1cc(OCCCc2c3n(c4c(-c5c(C)nn(CCN6CCCC6)c5C)c(Cl)ccc24)[C@H](C)CN(c2cn(C)c4ccc(C(N)=O)cc24)C3=O)cc(C)c1Cl` [Example 392, (R)-3-(7-chloro-10-(3-(4-chloro-3,5-dimethylphenoxy)propyl)-6-(3,5-dimethyl-1-(2-(pyrrolidin-1-yl)ethyl)-1H-pyrazol-4-yl)-4-methyl-1-oxo-3,4-dihydropyrazino[1,2-a]indol-2(1H)-yl)-1-methyl-1H-indole-5-carboxamide], in that order: 7.64 and 950 nM.
Regarding `Cc1noc(-c2ccc3c(c2)c(N2C[C@@H](C)n4c(c(CCCOc5cc(C)c(Cl)c(C)c5)c5ccc(Cl)c(-c6c(C)nn(C)c6C)c54)C2=O)cn3C)n1` [Example 393, (R)-7-Chloro-10-(3-(4-chloro-3,5-dimethylphenoxy)propyl)-4-methyl-2-(1-methyl-5-(3-methyl-1,2,4-oxadiazol-5-yl)-1H-indol-3-yl)-6-(1,3,5-trimethyl-1H-pyrazol-4-yl)-3,4-dihydropyrazino[1,2-a]indol-1(2H)-one], the negative logarithm of the Ki (pKi) at Mcl-1 is 8.64. In addition, in assay [1], the GI50 was determined as 1200 nM.
On to `Cc1cc(OCCCc2c3n(c4c(-c5c(C)nn(C)c5C)c(Cl)ccc24)[C@H](C)CN(c2cn(C)c4ccc(-c5ncccn5)cc24)C3=O)cc(C)c1Cl` [Example 394, (R)-7-Chloro-10-(3-(4-chloro-3,5-dimethylphenoxy)propyl)-4-methyl-2-(1-methyl-5-(pyrimidin-2-yl)-1H-indol-3-yl)-6-(1,3,5-trimethyl-1H-pyrazol-4-yl)-3,4-dihydropyrazino[1,2-a]indol-1(2H)-one], for which the pKi on Mcl-1 was 8.55. In assay [1], the GI50 was determined as 270 nM.
The like results for `Cc1noc(-c2ccc3c(c2)c(N2C[C@@H](C)n4c(c(CCCOc5cc(C)c(Cl)c(C)c5)c5ccc(Cl)c(-c6c(C)ncnc6C)c54)C2=O)cn3C)n1` [Example 395, (R)-7-Chloro-10-(3-(4-chloro-3,5-dimethylphenoxy)propyl)-6-(4,6-dimethylpyrimidin-5-yl)-4-methyl-2-(1-methyl-5-(3-methyl-1,2,4-oxadiazol-5-yl)-1H-indol-3-yl)-3,4-dihydropyrazino[1,2-a]indol-1(2H)-one] were, in that order, 8.66 and 860 nM.
